Series [1] deals with PPARγ. Nature of the series: PPARγ protein expression by western blot in HT-29 cells. The class given is cell-based, human. Conditions: 30 mM, 24 hours, HT-29, relative to β-actin. On the procedure: The total proteins were obtained by cell homogenization in an extraction buffer consisting of PBS with 2% Triton™, Phenyl Methyl Sulphonyl Fluoride (PMSF) 100 mM and a classical protease inhibitor cocktail (2). The total proteins were then separated by polyacrylamide gel electrophoresis and electroblotted. Polyvinylidendifluoride (PVDF) membranes were incubated overnight with rabbit polyclonal primary antibody directed against PPARγ (dilution 1/500, TEBU, Le Perray en Yveline, France). β-actin was detected using a rabbit monoclonal primary antibody diluted at 1/10,000 (Sigma). Immunodetection with a secondary peroxidase-conjugated antibody (1/1000, Dako™, Trappes, France) and chemiluminescence was performed according to the manufacturer's protocol (ECL™, Amersham Pharmacia Biotech™, Orsay, France). Optical density values of PPARγ were given for each condition in proportion to the quantity of the internal control β-actin in the same sample (2).

The subject of another series is DLD-1 cells. Nature of the series: Cell growth by colorimetric BrdU incorporation assay, DLD-1. The format is cell-based. Conditions: Homo sapiens, 48 hours; for inhibition at 500 µM: 0.5 mM; for inhibition at 1000 µM: 1 mM; for inhibition at 2500 µM: 2.5 mM; for inhibition at 5000 µM: 5 mM; for inhibition at 10000 µM: 10 mM. On the procedure: (§1) HT-29 and DLD-1 cells were cultured in McCoy and RPMI1640 media respectively, supplemented with 10% fetal bovine serum (FBS), 1% penicillin/streptomycin (P/S) and 50 μg/ml gentamycin. HT-115 were cultured in DMEM medium supplemented with 15% FBS and 1% P/S. Cells were maintained in a humidified incubator at 37° C., in the presence of 5% CO2.
(§2) For cell growth assays, single-cell suspensions were plated at 2×10^3 cells/well (4×10^3 cells/well for HT115) in 96-well culture dishes in medium containing 0.5% FBS and allowed to adhere. The non-adherent cells were then removed, and fresh medium containing 0.5% FBS was added into each well. Cells were cultured in the presence or absence of the specified substances. Each substance was dissolved as a 25 mM stock solution in culture medium containing 0.5% FBS, and the pH of each stock solution was adjusted to 7.4, if necessary, with NaOH. Substances were used at a final concentration ranging from 0.5 to 10 mM. Cell proliferation was determined by measuring the incorporation of 5-bromo-2′-deoxyuridine (BrdU) into DNA using a commercially available cell proliferation kit (Roche Diagnostics™, Monza, Italy). BrdU was added to the cell cultures during the last 6 hours of incubation, and the level of BrdU-positive cells was assessed after 48 h culture by enzyme-linked immunosorbent assay (ELISA).
(§3) Optical density (OD) was determined at 450 nm using an ELISA reader. Experiments were performed in triplicate and the results are reported as the mean±standard deviation (SD).

Series [2] deals with HT-29 STD cells. Nature of the series: Cell proliferation by nuclear Ki-67 immunostaining. The format is cell-based. Conditions: Homo sapiens, 30 mM, 24 h, compared to untreated cells, read-out: inhibition of cell proliferation (Ki-67 staining). On the procedure: After 24 h of culture, HT-29 STD cells were treated during 24 h with the new molecules 13, 14, 17, 26 and 31, at 30 mM. […] The pH of the drug solutions was adjusted to 7.4 with NaOH. Cells were fixed in PFA 4%, permeabilized in PBS containing 0.1% Triton X-100™ at 4° C. and then incubated with goat normal serum and blocking buffer (1% BSA in PBS) to minimize non-specific adsorption of the antibody. Cell proliferation was assessed by a nuclear Ki-67 staining using mouse monoclonal primary antibody directed against Ki-67 (dilution 1:50 overnight; ZYMED™ Clinisciences™, Montrouge, France). […] Nuclei were stained with Hoescht 33342 solution (0.125 mg/mL) (Sigma-Aldrich™) and visualized under a fluorescence microscope (Leica™, Bensheim, Germany). Negative controls consisted of staining with a non-specific mouse serum instead of the specific antibody. Counts of at least 500 cells/sample were systematically performed blindly in one experiment. The results were expressed as the mean±SEM of the number of stained cells.

Series [3] concerns the target T1, PPARγ (Homo sapiens, UniProt P37231).
T1 construct: HT-29 STD cells were transiently transfected using the Effectene™ transfection reagent; endogenous in cells; host or cells: HT-29 STD (human colon carcinoma)
T1 sequence (P37231 1-505): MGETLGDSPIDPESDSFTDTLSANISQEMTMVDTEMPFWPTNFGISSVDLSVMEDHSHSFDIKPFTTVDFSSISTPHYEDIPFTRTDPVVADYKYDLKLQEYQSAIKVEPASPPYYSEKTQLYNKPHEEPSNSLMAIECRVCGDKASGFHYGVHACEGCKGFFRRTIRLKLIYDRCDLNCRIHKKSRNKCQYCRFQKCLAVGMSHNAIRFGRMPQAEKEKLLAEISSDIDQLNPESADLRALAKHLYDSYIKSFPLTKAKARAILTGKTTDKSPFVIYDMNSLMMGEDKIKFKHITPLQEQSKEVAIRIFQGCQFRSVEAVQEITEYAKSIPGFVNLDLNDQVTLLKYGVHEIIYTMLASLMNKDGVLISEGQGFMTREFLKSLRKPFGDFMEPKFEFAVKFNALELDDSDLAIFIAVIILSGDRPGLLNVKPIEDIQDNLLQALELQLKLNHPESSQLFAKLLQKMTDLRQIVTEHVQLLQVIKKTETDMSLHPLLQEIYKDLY
Nature of the series: PPARγ activation, PPRE (2XCYP) luciferase reporter in transfected HT-29 STD cells (Example 8). The format is cell-based. Conditions: 30 mM, 24 hours, HT-29 STD transfected with 2XCYP. On the procedure: HT-29 STD cells were transiently transfected using the Effectene™ transfection reagent (Qiagen™) according to instructions from the manufacturer. To test PPARγ activation, we performed transfection with 500 ng of a minimal promoter construct containing two copies of PPRE obtained from the cytochrome p450 4A (2XCYP) (1). The renilla luciferase plasmid ([…]) was also transfected as an internal control for monitoring transfection efficiency and for normalizing the firefly luciferase activity. Transfected cells were left for 48 hours incubation at 37° C. […] The pH of the drug solutions was adjusted to 7.4 with NaOH. Total cell extracts were prepared using the Passive Lysis Buffer (Promega™, Madison, Wis.). Luciferase activity was assayed in 20 μl of the extract using the Promega™ Dual Luciferase assay system according to the manufacturer's protocol. Transfections were assayed in triplicate in at least three separate experiments. The luciferase activity was expressed as fold of the activity obtained in cells treated with the different molecules divided by luciferase activity from non-stimulated cells.

A short description of series [4]: Solubility in drug solutions / culture medium. The class given is physicochemical. Conditions: drug solutions for HT-29 experiments, 30 mM, pH 7.4.
For another series, the system named is HT-29, HT-115 and DLD-1. Nature of the series: Colon cancer cell growth by BrdU assay, three human colon carcinoma cell lines. The format is cell-based. Conditions: 48 h. On the procedure:
For this purpose, three human colon carcinoma cell lines (i.e. HT-29, HT-115 and DLD-1) were used. These cell types were selected on the basis of the cyclooxigenase-2 (COX-2) expression. Indeed, HT-115 cells express a biologically active COX-2, HT-29 cells express a non-functional COX-2 isoform, and DLD-1 are COX-2-deficient cells.
as §1, §2, §3

The test system of series [5] is HT-29 STD cells. Nature of the series: Detection of apoptosis by TUNEL assay. Conditions: 30 mM, 24 h. The format is cell-based, human. On the procedure:
After 24 h of culture, HT-29 STD cells were treated during 24 h with the new molecules 13, 14, 17, 26 and 31, at a concentration of 30 mM. […] The pH of the drug solutions was adjusted to 7.4 with NaOH. Cells undergoing apoptosis were identified by enzymatic labelling of DNA strands using a terminal transferase dUTP nick end labelling assay (TUNEL assay, Roche Diagnostics™, Meylan, France). Counts of at least 500 cells/sample were systematically performed blindly in one experiment. The results were expressed as the mean±SEM of the number of stained cells.

“Also recorded” adds a separate entry of the source.

For `Nc1cc2c(c(C(=O)O)c1)OCC2` [compound 17, 5-amino-2,3-dihydrobenzofuran-7-carboxylic acid], in the series with PPARγ [1], the “induction of PPARγ protein levels quantified by western blot” value is reported as 2 fold. In the series on DLD-1 cells, this compound gave an inhibition at 500 µM of 0%, an inhibition at 1000 µM of 0%, an inhibition at 2500 µM of 33.3% and an inhibition at 5000 µM of 89.3%. Further, the inhibition at 10000 µM with DLD-1 cells came to 90.7%. The inhibition at 30000 µM in the series with HT-29 STD cells [2] fell in the range of 67 to 75%. In addition, at PPARγ [3], the “reporter gene activity, factor of increase relative to untreated cells” value was “two-fold; also recorded: about twice”. In addition, the solubility entry in series [4] is listed as “poor solubility”. Besides, the “anti-proliferative effect on colon cancer cell growth (in words)” value with HT-29, HT-115 and DLD-1 (0.5-10 mM) is “marked anti-proliferative effect”.
Consider `CC(C)Oc1ccc(N)cc1C(=O)O` [compound 31, 5-amino-2-isopropoxybenzoic acid], for which the “induction of PPARγ protein levels quantified by western blot” value in the series on PPARγ [1] was found to be 2 fold. In the series on DLD-1 cells, this compound registered an inhibition at 500 µM of 0%, an inhibition at 1000 µM of 0%, an inhibition at 2500 µM of 0% and an inhibition at 5000 µM of 8.8%. This compound yielded an inhibition at 10000 µM in the series with DLD-1 cells of 31.7%. The inhibition at 30000 µM in the series on HT-29 STD cells [2] fell in the range of 67 to 75%. For the same compound, the “apoptosis, epithelial cells identified by TUNEL” value in the series on HT-29 STD cells [5] came out at 80%. For the same compound, on PPARγ [3], the “reporter gene activity, factor of increase relative to untreated cells” value was “two-fold; also recorded: about twice”. In addition, the cell growth inhibition entry with HT-29, HT-115 and DLD-1 (final concentration 10 mM) is given as “significantly inhibited cell growth”.

Source of the values: patent US8138357B2, “Compounds and their salts specific to the PPAR receptors and the EGF receptors and their use in the medical field” (Giuliani International Limited, priority 2005, dated 2012).
